Read-outs that look alike come from different tables or passages of the source.
What was measured:
Type in all cases: cell-based, human
MYB mRNA = assay: RT-qPCR splicing assay, MYB canonical junction (CJ) and alternative junction (AJ) mRNA; settings: Homo sapiens; for AC50: increase in MYB alternative junction (AJ) mRNA, read-out: MYB AJ AC50
Summary of the method: (§1)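 A673 or K562 cells were treated for 24 h at 37 °C with an 11-point 3-fold compound dilution series (top final concentration 10 uM, DMSO ≤0.25%). After lysis, one-step TaqMan RT-qPCR quantified junction transcripts, normalized to PPIA for A673 or to GAPDH/GUSB for K562.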

HTT mRNA = assay: RT-qPCR splicing assay, HTT canonical junction (CJ) and alternative junction (AJ) mRNA; settings: Homo sapiens; for AC50: increase in HTT alternative junction (AJ) mRNA, read-out: HTT AJ AC50
Summary of the method: as §1

Target C = assay: HiBiT protein abundance assay, Target C (Promega Nano-Glo HiBiT Lytic Detection System, knock-in K562 cell line); settings: Homo sapiens, K562, 24 h, HiBiT K562 cell line, 24 hours, top dose 10 μM; read-out: Effect on protein abundance, Target C (IC50 category)
Summary of the method: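 HiBiT knock-in K562 cells (10,000/well) were treated for 24 h at 37 °C with a 10-point 3-fold dilution series, top final concentration 10 μM, DMSO ≤0.25%. Lytic HiBiT luminescence was read, normalized to unmodified K562 and DMSO-treated controls, and IC50 was interpolated from a four-parameter logistic fit.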

[1] = canonical junction qPCR panel, Table 5, read-out: MYB (decrease in CJ mRNA levels, IC50)
[2] = decrease in MYB canonical junction (CJ) mRNA, RT-qPCR, read-out: MYB CJ IC50
[3] = decrease in HTT canonical junction (CJ) mRNA, RT-qPCR, read-out: HTT CJ IC50
[4] = canonical junction qPCR panel, Table 5, read-out: HTT (decrease in CJ mRNA levels, IC50)
[5] = Table 5 panel, canonical junction qPCR, compound concentration having 50% response in CJ decrease, read-out: MYB IC50 (decrease in CJ mRNA levels)
[6] = Table 5 panel, canonical junction qPCR, compound concentration having 50% response in CJ decrease, read-out: HTT IC50 (decrease in CJ mRNA levels)

IC50 (MYB mRNA; [1]) [nM] | IC50 (MYB mRNA; [2]) [nM] | IC50 (HTT mRNA; [3]) [nM] | IC50 (HTT mRNA; [4]) [nM] | IC50 (Target C) [nM] | IC50 (MYB mRNA; [5]) [nM] | IC50 (HTT mRNA; [6]) [nM] | SMILES | AC50 (MYB mRNA; RT-qPCR) [nM] | AC50 (HTT mRNA; RT-qPCR) [nM]
100 to 1000 | 100 to 1000 | > 10000 | 1000 to 10000 | > 10000 |  |  | Cc1c(O)c(-c2ncc3c(=O)n(C4CCNC4)ccc3n2)cc2cn(C)nc12 (stereo in doubt) [Compound 1439, (6R)-2-(6-hydroxy-2,7-dimethyl-indazol-5-yl)-6-pyrrolidin-3-yl-pyrido[4,3-d]pyrimidin-5-one] | 100 to 1000 | 1000 to 10000
100 to 1000 | 100 to 1000 | > 10000 | > 10000 | > 10000 |  |  | Cc1c(O)c(-c2ncc3c(=O)n(C4CCNC4)ccc3n2)cc2cn(C)nc12 (stereo in doubt) [Compound 1440, (6S)-2-(6-hydroxy-2,7-dimethyl-indazol-5-yl)-6-pyrrolidin-3-yl-pyrido[4,3-d]pyrimidin-5-one] | 100 to 1000 | > 10000
100 to 1000 | 100 to 1000 | 1000 to 10000 | 1000 to 10000 | 1000 to 10000 |  |  | Cc1c(O)c(-c2ncc3c(=O)n([C@@H]4CC5CC4CN5)ccc3n2)cc2cn(C)nc12 (stereo in doubt) [Compound 1443, 6-[(1R,4R,5R)-2-azabicyclo[2.2.1]heptan-5-yl]-2-(6-hydroxy-2,7-dimethyl-indazol-5-yl)pyrido[4,3-d]pyrimidin-5-one] | 100 to 1000 | 1000 to 10000
100 to 1000 | 100 to 1000 | 100 to 1000 | 100 to 1000 | 100 to 1000 |  |  | Cc1c(O)c(-c2ncc3c(=O)n(C4C[C@H]5C[C@@H]4CN5)ccc3n2)cc2cn(C)nc12 (stereo in doubt) [Compound 1444, 6-[(1R,4R,5R)-2-azabicyclo[2.2.1]heptan-5-yl]-2-(6-hydroxy-2,7-dimethyl-indazol-5-yl)pyrido[4,3-d]pyrimidin-5-one] | 100 to 1000 | 100 to 1000
1000 to 10000 | 1000 to 10000 | > 10000 | > 10000 | > 10000 |  |  | Cc1c(O)c(-c2ncc3c(=O)n([C@@H]4C[C@H]5C[C@@H]4CN5)ccc3n2)cc2cn(C)nc12 (stereo in doubt) [Compound 1446, 6-[(1R,4R,5R)-2-azabicyclo[2.2.1]heptan-5-yl]-2-(6-hydroxy-2,7-dimethyl-indazol-5-yl)pyrido[4,3-d]pyrimidin-5-one] | 1000 to 10000 | > 10000
 | 100 to 1000 | 1000 to 10000 |  | 1000 to 10000 | 100 to 1000 | 1000 to 10000 | Cn1cc2cc(-c3ccc4c(=O)n(C5CCNCC5)cnc4c3)ccc2n1 [Compound 182] | 100 to 1000 | 1000 to 10000
 | 100 to 1000 | < 100 |  | 100 to 1000 | 100 to 1000 | < 100 | Cc1cn2nc(-c3ccc4c(=O)n(C5CCNCC5)ncc4c3)cc(C)c2n1 [Compound 186] | < 100 | < 100
 | 100 to 1000 | 1000 to 10000 |  | 1000 to 10000 | 1000 to 10000 | 1000 to 10000 | Cc1cn2nc(-c3ccc4c(c3F)CCN(C3CCNCC3)C4=O)cc(C)c2n1 [Compound 188] | 1000 to 10000 | 1000 to 10000
 | > 10000 | > 10000 |  | > 10000 | > 10000 | > 10000 | CN1CCC(Nc2ccc3c(=O)n(-c4ccc5cn(C)nc5c4)cnc3c2)CC1 [Compound 203] | > 10000 | > 10000
 | > 10000 | > 10000 |  | > 10000 | > 10000 | > 10000 | Cn1cc2ccc(-n3cnc4cc(NC5CCNCC5)ccc4c3=O)cc2n1 [Compound 204] | > 10000 | > 10000
 | < 100 | 100 to 1000 |  | < 100 | < 100 | < 100 | Cc1c(O)c(-c2ncc3c(=O)n(C4CCNCC4)cc(C)c3n2)cc2cn(C)nc12 [Compound 1191] | < 100 | < 100
 | < 100 | 100 to 1000 |  | 100 to 1000 | < 100 | 100 to 1000 | Cc1cn2cc(-c3cc4ccn(C5CCNCC5)c(=O)c4cn3)cc(F)c2n1 [Compound 1196] | < 100 | 100 to 1000
 | 100 to 1000 | 100 to 1000 |  | 100 to 1000 | 100 to 1000 | 100 to 1000 | Cc1cn2nc(-c3cc4ccn(C5CCNCC5)c(=O)c4cn3)cc(C)c2n1 [Compound 1198, 6-(2,8-dimethylimidazo[1,2-b]pyridazin-6-yl)-2-(piperidin-4-yl)-2,7-naphthyridin-1(2H)-one] | 100 to 1000 | 100 to 1000
 | 100 to 1000 | 1000 to 10000 |  | 1000 to 10000 | 1000 to 10000 | 1000 to 10000 | Cn1cc2cc(-c3cc4ccn(C5CCNCC5)c(=O)c4cn3)c(O)c(F)c2n1 [Compound 1199] | 1000 to 10000 | 1000 to 10000
 | 100 to 1000 | 100 to 1000 |  | 1000 to 10000 | 100 to 1000 | 100 to 1000 | Cc1cc(-c2cc3ccn(C4CCNCC4)c(=O)c3cn2)cc2cn(C)nc12 [Compound 1204, 6-(2,7-dimethyl-2H-indazol-5-yl)-2-(piperidin-4-yl)-2,7-naphthyridin-1(2H)-one] | 100 to 1000 | 100 to 1000
 | 100 to 1000 | 100 to 1000 |  | 100 to 1000 | 100 to 1000 | 100 to 1000 | Cc1cn2cc(-c3cc4ccn(C5CCNCC5)c(=O)c4cn3)nc(C)c2n1 [Compound 1205, 6-(2,8-dimethylimidazo[1,2-a]pyrazin-6-yl)-2-(piperidin-4-yl)-2,7-naphthyridin-1(2H)-one] | 100 to 1000 | 100 to 1000
 | 1000 to 10000 | > 10000 |  | > 10000 | 100 to 1000 | > 10000 | Cc1cc(-c2cc3ccn(C4CCN(C)CC4)c(=O)c3cn2)cc2cn(C)nc12 [Compound 1206, 6-(2,7-dimethyl-2H-indazol-5-yl)-2-(1-methylpiperidin-4-yl)-2,7-naphthyridin-1(2H)-one] | 100 to 1000 | > 10000
 | 1000 to 10000 | 1000 to 10000 |  | 1000 to 10000 | 1000 to 10000 | 1000 to 10000 | CCN1CCC(n2ccc3cc(-c4cc(C)c5nn(C)cc5c4)ncc3c2=O)CC1 [Compound 1207, 6-(2,7-dimethyl-2H-indazol-5-yl)-2-(1-ethylpiperidin-4-yl)-2,7-naphthyridin-1(2H)-one] | 1000 to 10000 | 1000 to 10000
 | 100 to 1000 | 100 to 1000 |  |  | 100 to 1000 | 100 to 1000 | Cc1cn2cc(-c3ncc4c(=O)n([C@H]5CCNC5)ccc4n3)cc(F)c2n1 [Compound 1220] | 100 to 1000 | 100 to 1000
< 100 | < 100 | < 100 | < 100 |  |  |  | Cc1cn2nc(-c3ccc4c(=O)n(C5CCNCC5)ncc4n3)cc(C)c2n1 [Compound 1247] | < 100 | < 100
100 to 1000 | 100 to 1000 | 100 to 1000 | 100 to 1000 |  |  |  | Cn1cc2cc(-c3ccc4c(=O)n(C5CCNC6(CC6)C5)ncc4n3)c(O)cc2n1 (stereo not drawn) [Compound 1306] | 100 to 1000 | 100 to 1000
1000 to 10000 | 1000 to 10000 | 1000 to 10000 | 1000 to 10000 |  |  |  | CN1CCC(n2ncc3nc(-c4cc5cn(C)nc5cc4O)ccc3c2=O)CC1 [Compound 1307] | 1000 to 10000 | 1000 to 10000
100 to 1000 | 100 to 1000 | 100 to 1000 | < 100 |  |  |  | CCN1CCC(n2ncc3nc(-c4cc(C)c5nc(C)cn5n4)ccc3c2=O)CC1 [Compound 1308] | 100 to 1000 | < 100
100 to 1000 | 100 to 1000 | 100 to 1000 | < 100 |  |  |  | Cc1cn2nc(-c3ccc4c(=O)n(C5CCN(CCF)CC5)ncc4n3)cc(C)c2n1 [Compound 1309] | 100 to 1000 | < 100
1000 to 10000 | 1000 to 10000 | 1000 to 10000 | 100 to 1000 |  |  |  | CCN1CCC(n2ncc3nc(-c4cc5cn(C)nc5cc4O)ccc3c2=O)CC1 [Compound 1310] | 1000 to 10000 | 100 to 1000
100 to 1000 | 100 to 1000 | 100 to 1000 | 100 to 1000 |  |  |  | Cc1cn2nc(-c3ccc4c(=O)n(C5CCN(C)CC5)ncc4n3)cc(C)c2n1 [Compound 1311] | 100 to 1000 | 100 to 1000

Source: US20250332173A1, “COMPOUNDS AND METHODS FOR MODULATING NUCLEIC ACID SPLICING” (REMIX THERAPEUTICS INC., priority 2021, published 2025)
